# Test results as given in patent publication US8143414B2, “Hepatitis C virus inhibitors” (Bristol-Myers Squibb Company, priority 2009, dated 2012).
# System: HCV 1b genotype
# Test: HCV replicon assay, 1b genotype
# Type: cell-based
# Settings: Hepatitis C virus; HCV 1b genotype replicon; EC50 = effective 50% inhibitory concentration
# Experimental: An HCV Replion assay was utilized in the present disclosure, and was prepared, conducted and validated as described in commonly owned PCT/US2006/022197 and in O'Boyle et. al. Antimicrob Agents Chemother. 2005 April; 49(4):1346-53. Assay methods incorporating luciferase reporters have also been used as described (Apath.com).
# HCV-neo replicon cells and replicon cells containing mutations in the NS5A region were used to test the currently described family of compounds. The compounds were determined to have more than 10-fold less inhibitory activity on cells containing mutations than wild-type cells. Thus, the compounds of the present disclosure can be effective in inhibiting the function of the HCV NS5A protein and are understood to be as effective in combinations as previously described in application PCT/US2006/022197 and commonly owned WO/04014852. Further, the compounds of the present disclosure can be effective against the HCV 1b genotype. It should also be understood that the compounds of the present disclosure can inhibit multiple genotypes of HCV. […] In one embodiment, compounds of the present disclosure are inhibitory versus 1a, 1b, 2a, 2b, 3a, 4a, and 5a genotypes.
smiles,measurement,value
"COC(=O)N[C@H](C(=O)N1CCC[C@H]1c1ncc(-c2nc3cc4sc(-c5cnc([C@@H]6CCCN6C(=O)[C@@H](NC(=O)OC)C(C)C)[nH]5)nc4cc3s2)[nH]1)C(C)C [Example 1, Methyl ((1S)-1-(((2S)-2-(4-(6-(2-((28)-1-((2S)-2-((methoxycarbonyl)amino)-3-methylbutanoyl)-2-pyrrolidinyl)-1H-imidazol-4-yl)[1,3]thiazolo[5,4-f][1,3]benzothiazol-2-yl)-1H-imidazol-2-yl)-1-pyrrolidinyl)carbonyl)-2-methylpropyl)carbamate, bistrifluoracetate]",EC50,0.034 nM
"COC(=O)N[C@@H](C(=O)N1CCC[C@H]1c1ncc(-c2nc3cc4sc(-c5cnc([C@@H]6CCCN6C(=O)[C@H](NC(=O)OC)C(C)C)[nH]5)nc4cc3s2)[nH]1)C(C)C [Example 3, Methyl ((1R)-1-(((2S)-2-(4-(6-(2-((2S)-1-((2R)-2-((methoxycarbonyl)amino)-3-methylbutanoyl)-2-pyrrolidinyl)-1H-imidazol-4-yl)[1,3]thiazolo[5,4-f][1,3]benzothiazol-2-yl)-1H-imidazol-2-yl)-1-pyrrolidinyl)carbonyl)-2-methylpropyl)carbamate, bistrifluoracetate]",EC50,350 nM
"COC(=O)N[C@@H](C(=O)N1CCC[C@H]1c1ncc(-c2nc3cc4sc(-c5cnc([C@@H]6CCCN6C(=O)[C@H](NC(=O)OC)c6ccccc6)[nH]5)nc4cc3s2)[nH]1)c1ccccc1 [Example 2, Dimethyl ([1,3]thiazolo[5,4-f][1,3]benzothiazole-2,6-diylbis(1H-imidazole-4,2-diyl(2S)-2,1-pyrrolidinediyl((1R)-2-oxo-1-phenyl-2,1-ethanediyl)))biscarbamate, bistrifluoracetate]",EC50,0.025 nM
